From US8551961B2, “Localized delivery of cardiac inotropic agents” (Massachusetts Institute of Technology, priority 2005, dated 2013)
“Also recorded” adds a separate entry of the source.

Tested on: Sprague Dawley rats
Assay: Pericardial application of dobutamine to the left ventricular free wall in anesthetized rats, hemodynamic recording
Type: in vivo, rat
Description: Sprague Dawley rats ([…]) were anesthetized with an intraperitoneal injection of ketamine and xylazine. The rat was laid on a heating pad and maintained euthermic with warming lights. A 24 gauge intravenous catheter was placed in the tail vein and Ringer's lactate solution (LR) was infused at 10 cc/hr. The trachea was exposed through a vertical incision and cannulated with a 16 gauge blunt cannula that served as an endotracheal tube. The tube was connected to a ventilator for control of ventilation and respiration. The respiratory rate was set to 60 breaths per minute, inspiratory to expiratory time was set to 1:2 and inspiratory flow was 2 liters per minute. A midline sternotomy was performed, the heart exposed and the pericardium resected. The right carotid artery was dissected clean of fascia and care was taken to preserve the adjacent vagus nerve. A polyethelene (PE-50) cannula was inserted via an arteriotomy into the carotid artery and advanced through the ascending aorta into the left ventricle. This ventricular cannula was connected to a high fidelity pressure transducer and digital data acquisition system to record hemodynamic measures. Heart rate (HR), left ventricular systolic blood pressure (SBP), and the maximum rate of change of blood pressure in the left ventricle during isovolemic contraction (dp/dt max) was all recorded. The dp/dt max is the gold standard index of myocardial contractility.
Following cannulation the rat was stabilized for 30 minutes. Five-second recordings of HR, SBP and dp/dt max were captured every 3 to 5 minutes. SBP and dp/dt max were averaged over all the beats captured in the 5-second interval. Dobutamine (313 mcg/ml), a potent beta agonist inotropic agent, was delivered to the left ventricular free wall through the sternotomy using an infusion pump connected to a 24 gauge IV cannula that was suspended directly over the heart (4 mcg/min, 0.8 ml/hr). […] After 30 minutes the pericardial application of dobutamine was terminated and hemodynamic measurements were recorded for an additional 30 minutes.

In the case of `CC(CCc1ccc(O)cc1)NCCc1ccc(O)c(O)c1` (stereo not drawn) [dobutamine], the “Left ventricular systolic blood pressure / systemic blood pressure” value (dobutamine 4 mcg/min for 30 minutes, local pericardial delivery, FIG. 2) is reported as “increased”, the Heart rate (dobutamine 4 mcg/min for 30 minutes, topical application to the heart, FIG. 3) is reported as “increased” and the “Contractility (max dp/dt of left ventricular pressure during isovolemic contraction)” value (dobutamine 313 mcg/ml, 4 mcg/min (0.8 ml/hr) for 30 minutes, applied directly to left ventricular free wall, FIG. 1) is reported as “increased significantly; also recorded: significantly increased”.
